The results in this text go back to patent publication US20240299559A1, “COMPOUNDS THAT MEDIATE PROTEIN DEGRADATION AND METHODS OF USE THEREOF” (Monte Rosa Therapeutics, Inc., priority 2021, published 2024).

The target of one experiment is T1, CDK2 (Homo sapiens, UniProt P24941).
T1 construct: HEK293 clonal lines with CRISPR KI HiBiT tag on CDK2 proteins; host or cells: HEK293 clonal line with CRISPR knock-in HiBiT on CDK2, stably expressing LgBiT
Nature of the experiment: CDK2 HiBiT assay (degradation, Dmax). The class given is cell-based. The following applies: HEK293 clonal lines with CRISPR KI HiBiT tag on CDK2, stably expressing LgBiT; 24 hours incubation. The protocol:
HEK293 clonal lines with CRISPR KI HiBiT tag on CDK2 proteins and stably expressing LgBiT protein were obtained from Promega (Madison, WI). Cells were plated at 5000 cells per well using Multiflo (BioTek) in 384-well white solid bottom plates (Corning, 3570BC) in 25 ul volume in DMEM media (DMEM, high glucose, HEPES, no phenol red (ThermoFisher Scientific, 21063029)) containing 10% FBS (Corning, 35-075-CV), 1% Penicillin/Streptomycin (ThermoFisher Scientific, 15140-122). Cells were incubated for 16 hours at 37° C., 5% CO2. 75 nL of a compound at 30 μM were dosed into the plate using an Echo® 650 liquid handler (Labcyte). Cells were incubated at 37° C., 5% CO2 for 24 hours. 5 ul of HiBiT Lysis Reagent (Promega, N3030) is added using Combi Multidrop (ThermoFisher Scientific), plates are incubated for 15′ at 37° C., 5% CO2 and then signal was read on a Pherastar FSX using “LUM plus” optic module.
Analysis was performed in Scinamic (Scinamic, Cambridge, MA). Luminescence response (R) was calculated by the formula: response=100*(S−N)/(P−N) where S is the signal of the well, N and P the mean negative and positive control values respectively of the same plate. The luminescence response was then fitted in Scinamic using a 3-parameter agonist logistic fit (hillslope=1, EC50>0, top/bottom unconstrained).

In a further experiment the target is CRBN-DDB1 (Homo sapiens, UniProt Q96SW2). Nature of the experiment: Compound binding to CRBN by HTRF assay. The following applies: CRBN-DDB1 2.5 nM, Cy5-Thalidomide 100 nM probe; Ki from geometric mean of IC50 by Cheng-Prustoff transformation. As for the experimental part:
Compound activity was monitored in a Homogenous Time-Resolved Fluorescence (HTRF) assay using 1-[5-({2-[2-(2-{[2-(2,6-dioxopiperidin-3-yl)-1,3-dioxo-2,3-dihydro-1H-isoindol-4-yl]oxy}acetamido)ethoxy]ethyl}carbamoyl)pentyl]-3,3-dimethyl-2-[(1E,3E)-5-[(2E)-1,3,3-trimethyl-5-sulfo-2,3-dihydro-1H-indol-2-ylidene]penta-1,3-dien-1-yl]-3H-indol-1-ium-5-sulfonate as a fluorescent probe. Biochemical assays were conducted in Greiner white 384 well HiBase plates (Cat. No 784075-25) in 10 μL total volume. A one pot detection solution of CRBN-DDB1 (2.5 nM), Anti-His Terbium Cryptate Gold (1×, PerkinElmer Cat. #: 61HI2TLB), and Cy5-Thalidomide (100 nM, Tenova Cat.: T52461) was prepared in 20 mM HEPES, 20 mM NaCl, 0.2 mM TCEP, 0.2 mM EDTA, and 0.005% Tween20 was dispensed to each assay plate. Compounds were stored in dry, ambient temperatures at 10 mM. A 10-point, 1:3 dilution series was prepared from 10 mM stock concentrations in Echo-compatible LDV plates. 10 nL of each compound dilution series was dispensed into assays wells using an Echo 650 (Labcyte inc. USA). 10 nL of 10 mM Lenalidomide was transferred into the active-control wells for the assay and 10 nL of DMSO was transferred into the neutral-control wells. The assay was then allowed to incubate for 30 min at ambient temperature after transferring compound. Plate measurements were taken on a Pherastar FSX (BMG Labtech, Germany) using the HTRF Red filter (Ex. 337 nm, em1:620 nm, em2:665 nm) (Flashes: 50, Integration time: 60-400 us, Z-height: 10 mm, Ratio-multipler: 10,000). The HTRF signal was then subsequently normalized to the neutral and active controls. Analysis and IC50 values were derived using KNIME analytics (KNIME Zurich) transformation and fitting within Collaborative Drug Discovery (Collaborative Drug Discovery USA). Ki was derived from the geometric mean of the IC50 values using the Cheng-Prustoff transformation.
(In general: Time-resolved FRET reads energy transfer from a long-lived donor to a nearby acceptor.)

CRBN-DDB1, sequence (Q96SW2 whole entry): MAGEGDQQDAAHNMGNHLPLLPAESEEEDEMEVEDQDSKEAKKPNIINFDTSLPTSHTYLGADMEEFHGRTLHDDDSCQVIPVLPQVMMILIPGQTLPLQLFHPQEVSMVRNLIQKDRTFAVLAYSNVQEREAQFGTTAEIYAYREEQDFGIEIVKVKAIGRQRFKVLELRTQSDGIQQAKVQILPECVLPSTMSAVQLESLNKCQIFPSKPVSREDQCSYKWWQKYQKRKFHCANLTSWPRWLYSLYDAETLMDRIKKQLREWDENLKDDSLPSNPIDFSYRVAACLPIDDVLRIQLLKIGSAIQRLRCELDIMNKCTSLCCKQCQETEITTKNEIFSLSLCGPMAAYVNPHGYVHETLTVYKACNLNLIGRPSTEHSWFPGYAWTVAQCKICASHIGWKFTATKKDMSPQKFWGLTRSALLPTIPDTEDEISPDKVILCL
CRBN-DDB1, sequence (Q16531 whole entry partner): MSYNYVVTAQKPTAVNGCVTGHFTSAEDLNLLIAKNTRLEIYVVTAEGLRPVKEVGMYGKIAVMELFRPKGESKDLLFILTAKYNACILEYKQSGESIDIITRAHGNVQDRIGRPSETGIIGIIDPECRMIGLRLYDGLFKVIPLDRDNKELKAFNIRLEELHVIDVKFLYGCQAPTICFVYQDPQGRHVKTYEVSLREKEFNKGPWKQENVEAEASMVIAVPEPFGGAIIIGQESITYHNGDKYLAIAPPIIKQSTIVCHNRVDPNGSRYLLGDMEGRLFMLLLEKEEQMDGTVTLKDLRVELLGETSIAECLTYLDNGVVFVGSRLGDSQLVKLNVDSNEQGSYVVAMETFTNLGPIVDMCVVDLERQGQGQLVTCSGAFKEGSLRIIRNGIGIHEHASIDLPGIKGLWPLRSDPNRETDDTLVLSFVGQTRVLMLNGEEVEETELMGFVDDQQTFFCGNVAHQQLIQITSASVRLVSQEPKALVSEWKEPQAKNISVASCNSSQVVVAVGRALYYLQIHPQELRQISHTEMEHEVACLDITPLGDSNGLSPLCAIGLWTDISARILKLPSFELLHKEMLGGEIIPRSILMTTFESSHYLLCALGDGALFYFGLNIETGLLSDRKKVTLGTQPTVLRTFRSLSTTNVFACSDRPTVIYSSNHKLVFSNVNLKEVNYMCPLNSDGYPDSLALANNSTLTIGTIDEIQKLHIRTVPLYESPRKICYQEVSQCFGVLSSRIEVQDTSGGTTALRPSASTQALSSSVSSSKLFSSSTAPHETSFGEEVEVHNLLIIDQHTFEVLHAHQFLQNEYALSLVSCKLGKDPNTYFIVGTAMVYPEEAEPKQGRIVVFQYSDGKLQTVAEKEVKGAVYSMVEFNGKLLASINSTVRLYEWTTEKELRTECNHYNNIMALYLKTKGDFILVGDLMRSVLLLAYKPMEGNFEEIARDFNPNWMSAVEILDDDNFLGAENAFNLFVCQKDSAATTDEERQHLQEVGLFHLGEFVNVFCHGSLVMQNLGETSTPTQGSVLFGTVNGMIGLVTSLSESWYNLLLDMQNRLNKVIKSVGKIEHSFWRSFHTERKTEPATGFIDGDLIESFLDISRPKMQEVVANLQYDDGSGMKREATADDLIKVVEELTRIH

The compound `Cc1c(COC(=O)NCc2ccc3c(c2)C(=O)N(C2CCC(=O)NC2=O)C3)cccc1-c1ccccc1` (centres unmarked) [Compound 12, (2-methyl-[1,1′-biphenyl]-3-yl)methyl ((2-(2,6-dioxopiperidin-3-yl)-3-oxoisoindolin-5-yl)methyl)carbamate] displayed a Dmax at CDK2 of 50 to 80%. Moreover, the Ki at CRBN-DDB1 was not above 0.1 µM.
Taken in the same sequence, the figures for `O=C1CCC(N2Cc3ccc(CNC(=O)OCc4cncc(-c5ccccc5)c4)cc3C2=O)C(=O)N1` (centres unmarked) [Compound 13, (5-phenylpyridin-3-yl)methyl ((2-(2,6-dioxopiperidin-3-yl)-3-oxoisoindolin-5-yl)methyl)carbamate] were 10 to 50% and not above 0.1 µM.
On the same counts, the results for `O=C1CCC(N2Cc3ccc(CNC(=O)OCc4cc(-c5ccccc5)ccn4)cc3C2=O)C(=O)N1` (centres unmarked) [Compound 14, (4-phenylpyridin-2-yl)methyl ((2-(2,6-dioxopiperidin-3-yl)-3-oxoisoindolin-5-yl)methyl)carbamate] are 10 to 50% and 0.1 to 1 µM.
In the case of `O=C1CCC(N2Cc3ccc(CNC(=O)OCc4cccc(-c5cccnc5)c4)cc3C2=O)C(=O)N1` (centres unmarked) [Compound 15, 3-(pyridin-3-yl)benzyl ((2-(2,6-dioxopiperidin-3-yl)-3-oxoisoindolin-5-yl)methyl)carbamate], on CDK2, the Dmax was in the range of 10 to 50%. For the same compound, on CRBN-DDB1, the Ki is not above 0.1 µM.
Taken in the same sequence, the figures for `CC(NC(=O)OCc1ccc(OC2CCOCC2)nc1)c1ccc2c(c1)C(=O)N(C1CCC(=O)NC1=O)C2` (centres unmarked) [Compound 16, (6-((tetrahydro-2H-pyran-4-yl)oxy)pyridin-3-yl)methyl (1-(2-(2,6-dioxopiperidin-3-yl)-3-oxoisoindolin-5-yl)ethyl)carbamate] were 10 to 50% and 0.1 to 1 µM.
On the same counts, the results for `O=C1CCC(N2Cc3ccc(CNC(=O)OCc4ccc(N5CCCC5=O)cc4)cc3C2=O)C(=O)N1` (centres unmarked) [Compound 17, 4-(2-oxopyrrolidin-1-yl)benzyl ((2-(2,6-dioxopiperidin-3-yl)-3-oxoisoindolin-5-yl)methyl)carbamate] are 10 to 50% and 0.1 to 1 µM.
Taken in the same sequence, the figures for `O=C1CCC(N2Cc3ccc(CNC(=O)OCc4ccc(C5CCCO5)cc4)cc3C2=O)C(=O)N1` (centres unmarked) [Compound 18] were 10 to 50% and 0.1 to 1 µM.
With `O=C1CCC(N2Cc3ccc(CNC(=O)OCc4ccc([C@H]5CCC[C@@H]5O)cc4)cc3C2=O)C(=O)N1` (stereo partly drawn) [Compound 19, 4-((1R, 2S)-2-hydroxycyclopentyl) benzyl ((2-(2,6-dioxopiperidin-3-yl)-3-oxoisoindolin-5-yl)methyl)carbamate], at CDK2, the Dmax was 10 to 50%. This compound yielded a Ki on CRBN-DDB1 of 0.1 to 1 µM.
As to `O=C1CCC(N2Cc3ccc(CNC(=O)OCc4ccccc4)cc3C2=O)C(=O)N1` (centres unmarked) [Compound 20, benzyl ((2-(2,6-dioxopiperidin-3-yl)-3-oxoisoindolin-5-yl)methyl)carbamate], the Dmax at CDK2 fell in the range of 10 to 50%. For the same compound, the Ki at CRBN-DDB1 is 0.1 to 1 µM.
For the compound `O=C(CCc1cccc(-c2ccc(F)cc2)c1)NCc1ccc2c(c1)C(=O)N(C1CCC(=O)NC1=O)C2` (centres unmarked) [Compound 21, N-((2-(2,6-dioxopiperidin-3-yl)-3-oxoisoindolin-5-yl)methyl)-3-(4′-fluoro-[1,1′-biphenyl]-3-yl)propanamide], the Dmax at CDK2 is not above 10%. On CRBN-DDB1, the Ki is not above 0.1 µM.
On the same counts, the results for `O=C1CCC(N2Cc3ccc(CNC(=O)OCCc4ccccc4)cc3C2=O)C(=O)N1` (centres unmarked) [Compound 22, 2-phenylethyl N-{[2-(2,6-dioxopiperidin-3-yl)-3-oxo-2,3-dihydro-1H-isoindol-5-yl]methyl}carbamate] are 10 to 50% and not above 0.1 µM.
On the same counts, the results for `O=C1CCC(N2Cc3ccc(CNC(=O)OCCCc4ccccc4)cc3C2=O)C(=O)N1` (centres unmarked) [Compound 23, 3-phenylpropyl N-{[2-(2,6-dioxopiperidin-3-yl)-3-oxo-2,3-dihydro-1H-isoindol-5-yl]methyl}carbamate] are 10 to 50% and 0.1 to 1 µM.
On the same counts, the results for `O=C1CCC(N2Cc3ccc(CNC(=O)OCc4ccc(Cl)cc4)cc3C2=O)C(=O)N1` (centres unmarked) [Compound 24, (4-chlorophenyl)methyl N-{[2-(2,6-dioxopiperidin-3-yl)-3-oxo-2,3-dihydro-1H-isoindol-5-yl]methyl}carbamate] are not above 10% and not above 0.1 µM.
`COc1ccc(COC(=O)NCc2ccc3c(c2)C(=O)N(C2CCC(=O)NC2=O)C3)cc1` (centres unmarked) [Compound 25, (4-methoxyphenyl)methyl N-{[2-(2,6-dioxopiperidin-3-yl)-3-oxo-2,3-dihydro-1H-isoindol-5-yl]methyl}carbamate]: the Dmax at CDK2 lay in the range of 10 to 50%. Moreover, at CRBN-DDB1, the Ki was not above 0.1 µM.
Taken in the same sequence, the figures for `O=C1CCC(N2Cc3ccc(CNC(=O)OCc4ccc([N+](=O)[O-])cc4)cc3C2=O)C(=O)N1` (centres unmarked) [Compound 26, (4-nitrophenyl)methyl N-{[2-(2,6-dioxopiperidin-3-yl)-3-oxo-2,3-dihydro-1H-isoindol-5-yl]methyl}carbamate] were 10 to 50% and 0.1 to 1 µM.
On the same counts, the results for `COc1ccc2cc(COC(=O)NCc3ccc4c(c3)C(=O)N(C3CCC(=O)NC3=O)C4)ccc2c1` (centres unmarked) [Compound 28, (6-methoxynaphthalen-2-yl)methyl N-{[2-(2,6-dioxopiperidin-3-yl)-3-oxo-2,3-dihydro-1H-isoindol-5-yl]methyl}carbamate] are not above 10% and 0.1 to 1 µM.
Taken in the same sequence, the figures for `Cc1ccc(COC(=O)NCc2ccc3c(c2)C(=O)N(C2CCC(=O)NC2=O)C3)cc1` (centres unmarked) [Compound 29, (4-methylphenyl)methyl N-{[2-(2,6-dioxopiperidin-3-yl)-3-oxo-2,3-dihydro-1H-isoindol-5-yl]methyl}carbamate] were not above 10% and not above 0.1 µM.
In the case of `Cc1ccc(COC(=O)NCc2ccc3c(c2)C(=O)N(C2CCC(=O)NC2=O)C3)c(C)c1` (centres unmarked) [Compound 30, (2,4-dimethylphenyl)methyl N-{[2-(2,6-dioxopiperidin-3-yl)-3-oxo-2,3-dihydro-1H-isoindol-5-yl]methyl}carbamate], the Dmax at CDK2 was in the range of 10 to 50%. At CRBN-DDB1, this compound showed a Ki of 0.1 to 1 µM.
Taken in the same sequence, the figures for `O=C1CCC(N2Cc3ccc(CNC(=O)OCc4cccc(C(F)(F)F)c4)cc3C2=O)C(=O)N1` (centres unmarked) [Compound 31, [3-(trifluoromethyl)phenyl]methyl N-{[2-(2,6-dioxopiperidin-3-yl)-3-oxo-2,3-dihydro-1H-isoindol-5-yl]methyl}carbamate] were 10 to 50% and not above 0.1 µM.
Take `O=C1CCC(N2Cc3ccc(CNC(=O)OCc4cccc([N+](=O)[O-])c4)cc3C2=O)C(=O)N1` (centres unmarked) [Compound 32, (3-nitrophenyl)methyl N-{[2-(2,6-dioxopiperidin-3-yl)-3-oxo-2,3-dihydro-1H-isoindol-5-yl]methyl}carbamate]: the Dmax on CDK2 was not above 10%. In addition, the Ki on CRBN-DDB1 fell in the range of 0.1 to 1 µM.
In the case of `O=C1CCC(N2Cc3ccc(CNC(=O)OCc4ccc(OC(F)F)cc4)cc3C2=O)C(=O)N1` (centres unmarked) [Compound 33, [4-(difluoromethoxy)phenyl]methyl N-{[2-(2,6-dioxopiperidin-3-yl)-3-oxo-2,3-dihydro-1H-isoindol-5-yl]methyl}carbamate], the Dmax at CDK2 was 10 to 50%. At CRBN-DDB1, this compound returned a Ki not above 0.1 µM.
On CDK2, `CCOc1c(C)cc(COC(=O)NCc2ccc3c(c2)C(=O)N(C2CCC(=O)NC2=O)C3)cc1C` (centres unmarked) [Compound 34, (4-ethoxy-3,5-dimethylphenyl)methyl N-{[2-(2,6-dioxopiperidin-3-yl)-3-oxo-2,3-dihydro-1H-isoindol-5-yl]methyl}carbamate] registered a Dmax of 10 to 50%. In addition, the Ki on CRBN-DDB1 is not above 0.1 µM.

For orientation: Dmax means the greatest extent of degradation seen. A higher Dmax goes with a fuller loss of target. By Ki is commonly meant the equilibrium dissociation constant of an inhibitor or competing ligand from its target. Read a low Ki as higher affinity.
